Measurements taken from patent US10597388B2, “Pyridazinone herbicides” (FMC CORPORATION, priority 2014, dated 2020).

Columns and labels:
Assay in all cases: Test C greenhouse herbicide test, pre- and postemergence
Format in all cases: in vivo
[1] = system: nutsedge, yellow (yellow nutsedge, Cyperus esculentus)
Excerpt: (§1) Seeds of plant species selected from blackgrass (Alopecurus myosuroides), ryegrass, Italian (Italian ryegrass, Lolium multiflorum), wheat (winter wheat, Triticum aestivum), galium (catchweed bedstraw, Galium aparine), corn (Zea mays), large crabgrass, large (large crabgrass, Digitaria sanguinalis), foxtail, giant (giant foxtail, Setaria faberii), johnsongrass (Sorghum halepense), lambsquarters (Chenopodium album), morningglory (Ipomoea coccinea), nutsedge, yellow (yellow nutsedge, Cyperus esculentus), pigweed (Amaranthus retroflexus), ragweed (common ragweed, Ambrosia elatior), soybean (Glycine max), barnyardgrass (Echinochloa crus-galli), oilseed rape (Brassica napus), waterhemp (common waterhemp, Amaranthus rudis), and velvetleaf (Abutilon theophrasti) were planted into a blend of loam soil and sand and treated preemergence with test chemicals formulated in a non-phytotoxic solvent mixture which included a surfactant.
(§2) At the same time, plants selected from these crop and weed species and also chickweed (common chickweed, Stellaria media), kochia (Kochia scoparia), and oat, wild (wild oat, Avena fatua), were planted in pots containing Redi-Earth® planting medium (Scotts Company, 14111 Scottslawn Road, Marysville, Ohio 43041) comprising spaghnum peat moss, vermiculite, wetting agent and starter nutrients and treated with postemergence applications of test chemicals formulated in the same manner. Plants ranged in height from 2 to 18 cm (1- to 4-leaf stage) for postemergence treatments. Treated plants and controls were maintained in a greenhouse for 13 to 15 d, after which time all species were compared to controls and visually evaluated. Plant response ratings, summarized in Table C, are based on a scale of 0 to 100 where 0 is no effect and 100 is complete control. A dash (-) response means no test result.

[2] = system: ryegrass, Italian (Italian ryegrass, Lolium multiflorum)
Excerpt: as §1, §2

[3] = system: wheat (winter wheat, Triticum aestivum)
Excerpt: as §1, §2

[4] = system: crabgrass, large (large crabgrass, Digitaria sanguinalis)
Excerpt: as §1, §2

soybean (Glycine max) = system: soybean (Glycine max)
Excerpt: as §1, §2

[5] = system: lambsquarters (Chenopodium album)
Excerpt: as §1, §2

[6] = system: morningglory (Ipomoea coccinea)
Excerpt: as §1, §2

[7] = system: blackgrass (Alopecurus myosuroides)
Excerpt: as §1, §2

[8] = system: galium (catchweed bedstraw, Galium aparine)
Excerpt: as §1, §2

[9] = system: velvetleaf (Abutilon theophrasti)
Excerpt: as §1, §2

corn (Zea mays) = system: corn (Zea mays)
Excerpt: as §1, §2

[10] = system: barnyardgrass (Echinochloa crus-galli)
Excerpt: as §1, §2

[11] = system: foxtail, giant (giant foxtail, Setaria faberii)
Excerpt: as §1, §2

[12] = system: waterhemp (common waterhemp, Amaranthus rudis)
Excerpt: as §1, §2

[13] = system: pigweed (Amaranthus retroflexus)
Excerpt: as §1, §2

[14] = Postemergence, 31 g ai/ha, 0 to 100 scale (0 no effect, 100 complete control)
[15] = Postemergence, 125 g ai/ha, scale 0 to 100, 0 is no effect, 100 is complete control
[16] = Postemergence, 250 g ai/ha, scale 0 to 100, 0 no effect, 100 complete control, 13 to 15 d
[17] = Preemergence, 31 g ai/ha, scale 0 to 100, 0 is no effect, 100 is complete control
[18] = Preemergence, 62 g ai/ha, scale 0 to 100, 0 is no effect, 100 is complete control
[19] = Preemergence, 125 g ai/ha, scale 0 to 100, 0 is no effect, 100 is complete control
[20] = Preemergence, 250 g ai/ha, scale 0 to 100, 0 no effect, 100 complete control
[21] = postemergence, 62 g ai/ha, scale 0 to 100, 0 no effect, 100 complete control

Q: With `Cc1ccc2sc(Br)c(-c3c(O)c(C)nn(C)c3=O)c2c1` [Compound 79] as the molecule, how does the “Nutsedge, Yellow plant response rating” value [1, 14] read?
A: 85

Q: What about the “Plant response rating, Nutsedge, Yellow” value [1, 15] of the same molecule?
A: 80

Q: And the “Plant response rating, Nutsedge, Yellow” value [1, 16]?
A: 85

Q: And the “Plant response rating, Nutsedge, Yellow” value [1, 17]?
A: 25

Q: And the “Plant response rating, Nutsedge, Yellow” value [1, 18]?
A: 45

Q: And the “Plant response rating, Nutsedge, Yellow” value [1, 19]?
A: 90

Q: What about the “Nutsedge, Yellow plant response rating” value [1, 20] of the same molecule?
A: 90

Q: What about the “Nutsedge, Yellow plant response rating” value [1, 21] of the same molecule?
A: 80

Q: What about the “Ryegrass, Italian plant response rating” value [2, 14] of the same molecule?
A: 50

Q: What about the “Plant response rating, Ryegrass, Italian” value [2, 15] of the same molecule?
A: 85

Q: What about the “Plant response rating, Ryegrass, Italian” value [2, 16] of the same molecule?
A: 85

Q: What about the “Plant response rating, Ryegrass, Italian” value [2, 17] of the same molecule?
A: 20

Q: And the “Plant response rating, Ryegrass, Italian” value [2, 18]?
A: 90

Q: And the “Plant response rating, Ryegrass, Italian” value [2, 19]?
A: 90

Q: And the “Ryegrass, Italian plant response rating” value [2, 20]?
A: 90

Q: What about the “Ryegrass, Italian plant response rating” value [2, 21] of the same molecule?
A: 60

Q: And the “Wheat plant response rating” value [3, 14]?
A: 0

Q: What about the “Plant response rating, Wheat” value [3, 15] of the same molecule?
A: 0

Q: And the “Plant response rating, Wheat” value [3, 16]?
A: 0

Q: And the “Plant response rating, Wheat” value [3, 17]?
A: 0

Q: What about the “Plant response rating, Wheat” value [3, 18] of the same molecule?
A: 0

Q: And the “Plant response rating, Wheat” value [3, 19]?
A: 0

Q: And the “Wheat plant response rating” value [3, 20]?
A: 0

Q: And the “Wheat plant response rating” value [3, 21]?
A: 0

Q: What about the “Crabgrass, Large plant response rating” value [4, 14] of the same molecule?
A: 20

Q: What about the “Plant response rating, Crabgrass, Large” value [4, 15] of the same molecule?
A: 30

Q: And the “Plant response rating, Crabgrass, Large” value [4, 16]?
A: 35

Q: And the “Plant response rating, Crabgrass, Large” value [4, 17]?
A: 25

Q: What about the “Plant response rating, Crabgrass, Large” value [4, 18] of the same molecule?
A: 25

Q: And the “Plant response rating, Crabgrass, Large” value [4, 19]?
A: 20

Q: What about the “Crabgrass, Large plant response rating” value [4, 20] of the same molecule?
A: 30

Q: What about the “Crabgrass, Large plant response rating” value [4, 21] of the same molecule?
A: 25

Q: And the “Soybean plant response rating” value (soybean (Glycine max); [14])?
A: 0

Q: What about the “Plant response rating, Soybean” value (soybean (Glycine max); [15]) of the same molecule?
A: 5

Q: What about the “Plant response rating, Soybean” value (soybean (Glycine max); [16]) of the same molecule?
A: 5

Q: And the “Plant response rating, Soybean” value (soybean (Glycine max); [17])?
A: 0

Q: What about the “Plant response rating, Soybean” value (soybean (Glycine max); [18]) of the same molecule?
A: 0

Q: What about the “Plant response rating, Soybean” value (soybean (Glycine max); [19]) of the same molecule?
A: 5

Q: What about the “Soybean plant response rating” value (soybean (Glycine max); [20]) of the same molecule?
A: 0

Q: And the “Soybean plant response rating” value (soybean (Glycine max); [21])?
A: 0

Q: And the “Lambsquarters plant response rating” value [5, 14]?
A: 85

Q: What about the “Plant response rating, Lambsquarters” value [5, 15] of the same molecule?
A: 98

Q: What about the “Plant response rating, Lambsquarters” value [5, 16] of the same molecule?
A: 100

Q: What about the “Plant response rating, Lambsquarters” value [5, 17] of the same molecule?
A: 100

Q: And the “Plant response rating, Lambsquarters” value [5, 18]?
A: 95

Q: What about the “Plant response rating, Lambsquarters” value [5, 19] of the same molecule?
A: 100

Q: And the “Lambsquarters plant response rating” value [5, 20]?
A: 100

Q: And the “Lambsquarters plant response rating” value [5, 21]?
A: 95

Q: What about the “Morningglory plant response rating” value [6, 14] of the same molecule?
A: 100

Q: And the “Plant response rating, Morningglory” value [6, 15]?
A: 100

Q: And the “Plant response rating, Morningglory” value [6, 16]?
A: 98

Q: What about the “Plant response rating, Morningglory” value [6, 17] of the same molecule?
A: 90

Q: And the “Plant response rating, Morningglory” value [6, 18]?
A: 95

Q: And the “Plant response rating, Morningglory” value [6, 19]?
A: 98

Q: What about the “Morningglory plant response rating” value [6, 20] of the same molecule?
A: 98

Q: What about the “Morningglory plant response rating” value [6, 21] of the same molecule?
A: 100

Q: And the “Blackgrass plant response rating” value [7, 14]?
A: 5

Q: And the “Plant response rating, Blackgrass” value [7, 15]?
A: 35

Q: What about the “Plant response rating, Blackgrass” value [7, 16] of the same molecule?
A: 50

Q: What about the “Plant response rating, Blackgrass” value [7, 17] of the same molecule?
A: 20

Q: And the “Plant response rating, Blackgrass” value [7, 18]?
A: 50

Q: And the “Plant response rating, Blackgrass” value [7, 19]?
A: 60

Q: And the “Blackgrass plant response rating” value [7, 20]?
A: 85

Q: And the “Blackgrass plant response rating” value [7, 21]?
A: 10

Q: And the “Galium plant response rating” value [8, 14]?
A: 95

Q: What about the “Plant response rating, Galium” value [8, 15] of the same molecule?
A: 95

Q: What about the “Plant response rating, Galium” value [8, 16] of the same molecule?
A: 95

Q: And the “Plant response rating, Galium” value [8, 17]?
A: 95

Q: And the “Plant response rating, Galium” value [8, 18]?
A: 95

Q: And the “Plant response rating, Galium” value [8, 19]?
A: 95

Q: What about the “Galium plant response rating” value [8, 20] of the same molecule?
A: 98

Q: And the “Galium plant response rating” value [8, 21]?
A: 95

Q: What about the “Velvetleaf plant response rating” value [9, 14] of the same molecule?
A: 75

Q: And the “Plant response rating, Velvetleaf” value [9, 15]?
A: 90

Q: What about the “Plant response rating, Velvetleaf” value [9, 16] of the same molecule?
A: 90

Q: And the “Plant response rating, Velvetleaf” value [9, 17]?
A: 80

Q: And the “Plant response rating, Velvetleaf” value [9, 18]?
A: 85

Q: What about the “Plant response rating, Velvetleaf” value [9, 19] of the same molecule?
A: 95

Q: What about the “Velvetleaf plant response rating” value [9, 20] of the same molecule?
A: 95

Q: What about the “Velvetleaf plant response rating” value [9, 21] of the same molecule?
A: 85

Q: And the “Corn plant response rating” value (corn (Zea mays); [14])?
A: 0

Q: What about the “Plant response rating, Corn” value (corn (Zea mays); [15]) of the same molecule?
A: 25

Q: And the “Plant response rating, Corn” value (corn (Zea mays); [16])?
A: 35

Q: And the “Plant response rating, Corn” value (corn (Zea mays); [17])?
A: 0

Q: What about the “Plant response rating, Corn” value (corn (Zea mays); [18]) of the same molecule?
A: 0

Q: What about the “Plant response rating, Corn” value (corn (Zea mays); [19]) of the same molecule?
A: 5

Q: What about the “Corn plant response rating” value (corn (Zea mays); [20]) of the same molecule?
A: 5

Q: What about the “Corn plant response rating” value (corn (Zea mays); [21]) of the same molecule?
A: 0

Q: And the “Barnyardgrass plant response rating” value [10, 14]?
A: 20

Q: What about the “Plant response rating, Barnyardgrass” value [10, 15] of the same molecule?
A: 30

Q: What about the “Plant response rating, Barnyardgrass” value [10, 16] of the same molecule?
A: 40

Q: And the “Plant response rating, Barnyardgrass” value [10, 17]?
A: 10

Q: And the “Plant response rating, Barnyardgrass” value [10, 18]?
A: 15

Q: What about the “Plant response rating, Barnyardgrass” value [10, 19] of the same molecule?
A: 65

Q: What about the “Barnyardgrass plant response rating” value [10, 20] of the same molecule?
A: 85

Q: What about the “Barnyardgrass plant response rating” value [10, 21] of the same molecule?
A: 25

Q: What about the “Foxtail, Giant plant response rating” value [11, 14] of the same molecule?
A: 35

Q: What about the “Plant response rating, Foxtail, Giant” value [11, 15] of the same molecule?
A: 75

Q: What about the “Plant response rating, Foxtail, Giant” value [11, 16] of the same molecule?
A: 90

Q: And the “Plant response rating, Foxtail, Giant” value [11, 17]?
A: 65

Q: And the “Plant response rating, Foxtail, Giant” value [11, 18]?
A: 85

Q: What about the “Plant response rating, Foxtail, Giant” value [11, 19] of the same molecule?
A: 85

Q: What about the “Foxtail, Giant plant response rating” value [11, 20] of the same molecule?
A: 95

Q: What about the “Foxtail, Giant plant response rating” value [11, 21] of the same molecule?
A: 60

Q: And the “Waterhemp plant response rating” value [12, 14]?
A: 85

Q: And the “Plant response rating, Waterhemp” value [12, 15]?
A: 80

Q: What about the “Plant response rating, Waterhemp” value [12, 16] of the same molecule?
A: 95

Q: And the “Plant response rating, Waterhemp” value [12, 17]?
A: 100

Q: What about the “Plant response rating, Waterhemp” value [12, 18] of the same molecule?
A: 100

Q: And the “Plant response rating, Waterhemp” value [12, 19]?
A: 100

Q: And the “Waterhemp plant response rating” value [12, 20]?
A: 100

Q: What about the “Waterhemp plant response rating” value [12, 21] of the same molecule?
A: 90

Q: And the “Pigweed plant response rating” value [13, 14]?
A: 90

Q: And the “Plant response rating, Pigweed” value [13, 15]?
A: 98

Q: What about the “Plant response rating, Pigweed” value [13, 16] of the same molecule?
A: 98

Q: What about the “Plant response rating, Pigweed” value [13, 17] of the same molecule?
A: 100

Q: What about the “Plant response rating, Pigweed” value [13, 18] of the same molecule?
A: 100

Q: And the “Plant response rating, Pigweed” value [13, 19]?
A: 100

Q: And the “Pigweed plant response rating” value [13, 20]?
A: 100

Q: And the “Pigweed plant response rating” value [13, 21]?
A: 98
